In brackets after ≈: the same amount, converted by molar mass.

Series [1] relates to Trichomonas vaginalis. The series is described as follows: Antiparasitic activity against Trichomonas vaginalis GT3 after 24 hr by Alamar blue assay. Format: functional. The note with it: GT3, 24 h.
Series [2] in a line: Partition coefficient, log P of compound at 2:1 1-octanol/water volume ratio by spectrophotometer. Format: physicochemical.
The subject of series [3] is Trichomonas vaginalis. In words: Antiparasitic activity against Trichomonas vaginalis GT3 after 48 hr by Alamar blue assay. Format: functional, organism-based. Particulars: GT3, 48 h. Background: The colour change of resazurin is a common sign of viable cells or microbes.
The nature of series [4]: Partition coefficient, log P of compound at 1:2 1-octanol/water volume ratio by spectrophotometer. Format: physicochemical.
A short description of series [5]: Partition coefficient, log P of compound at 1:1 1-octanol/water volume ratio by spectrophotometer. Format: physicochemical.

As usually defined, the MIC is the least concentration at which growth counts as inhibited. Usually logP stands for the decadic logarithm of the partition coefficient of the neutral form, usually between octanol and water. As usually defined, the EC50 is the concentration that produces a half-maximal response. Read a low EC50 as higher potency in that assay. On to `O=[N+]([O-])c1cnc2ccccn12`, for which the MIC against Trichomonas vaginalis [1] was 3.01 µM (≈ 0.491 µg/mL); in the series on Trichomonas vaginalis [3], 3.07 µM (≈ 0.501 µg/mL). For the same compound, the logP in series [2] came to 0.922; in series [4], 0.96; in series [5] it was 0.938. Besides, in the series on Trichomonas vaginalis [3], a half-maximal effect (EC50) was put at 2.45 µM.

As to `CCOC(=O)c1nc2ccccn2c1[N+](=O)[O-]`, the MIC against Trichomonas vaginalis [1] and in the series on Trichomonas vaginalis [3] was 2.13 µM (≈ 0.501 µg/mL) each time. Moreover, the logP in series [2] was found to be 0.963; in series [4] it was 1.04; in series [5], 0.983. Also, it took 3.96 µM to reach a half-maximal effect in the series on Trichomonas vaginalis [3] (EC50).

Consider `O=C(O)c1nc2ccccn2c1[N+](=O)[O-]`, for which the MIC against Trichomonas vaginalis [1] and against Trichomonas vaginalis [3] was 19.3 µM (≈ 4 µg/mL) throughout. Further, the logP in series [2] is -0.038; in series [4], -0.042; in series [5], -0.041. In the series with Trichomonas vaginalis [3], this compound returned an EC50 of 21.1 µM.

Take `CCOC(=O)c1nc2cccc(C)n2c1[N+](=O)[O-]`: the MIC against Trichomonas vaginalis [1] and against Trichomonas vaginalis [3] was 4.02 µM (≈ 1 µg/mL) in each case. Also, the logP in series [2] stood at 1.3; in series [4] it was 1.2; in series [5] it was 1.27. In addition, the EC50 in the series on Trichomonas vaginalis [3] was found to be 9.11 µM.

With `NC(=O)c1nc2ccccn2c1[N+](=O)[O-]`, the MIC in the series with Trichomonas vaginalis [1] and against Trichomonas vaginalis [3] was 9.71 µM (≈ 2 µg/mL) throughout. The lipophilicity (logP) in series [2] is -0.54; in series [4], -0.569; in series [5], -0.515. In the series with Trichomonas vaginalis [3], this compound displayed an EC50 of 41.3 µM.

For the compound `Cc1cccc2nc(C(N)=O)c([N+](=O)[O-])n12`, the MIC with Trichomonas vaginalis [1] and in the series with Trichomonas vaginalis [3] was 9.09 µM (≈ 2 µg/mL) throughout. For the same compound, the logP in series [2] was 0.695; in series [4], 0.69; in series [5] it was 0.67. This compound also yielded an EC50 in the series with Trichomonas vaginalis [3] of 14.6 µM.

As to `O=[N+]([O-])c1c(NC2CCCCC2)nc2ccccn12`, the MIC was determined as 61.5 µM (≈ 16 µg/mL) against Trichomonas vaginalis [1] and 30.8 µM (≈ 8.02 µg/mL) in the series on Trichomonas vaginalis [3]. For the same compound, the logP in series [2] turned out to be 1.5; in series [4], 1.5; in series [5] it was 1.54. The EC50 with Trichomonas vaginalis [3] amounted to 61.5 µM.

In the case of `N#Cc1nc2ccccn2c1[N+](=O)[O-]`, the MIC stood at 5.32 µM (≈ 1 µg/mL) in the series on Trichomonas vaginalis [1] and 2.66 µM (≈ 0.5 µg/mL) in the series on Trichomonas vaginalis [3]. Further, the logP in series [2] was 0.692; in series [4], 0.641; in series [5], 0.691. This compound returned an EC50 in the series on Trichomonas vaginalis [3] of 9.68 µM.

Take `Cc1cccc2nc(C#N)c([N+](=O)[O-])n12`: the MIC is 4.95 µM (≈ 1 µg/mL) in the series with Trichomonas vaginalis [1] and 2.48 µM (≈ 0.501 µg/mL) in the series on Trichomonas vaginalis [3]. Moreover, the logP is 1.08 in series [2], 1.12 in series [4] and 1.19 in series [5]. Besides, the concentration giving a half-maximal response (EC50) with Trichomonas vaginalis [3] was 12.1 µM.

Consider `Cc1cccc2nc(NC3CCCCC3)c([N+](=O)[O-])n12`, for which the MIC in the series on Trichomonas vaginalis [1] amounted to 58.4 µM (≈ 16 µg/mL); with Trichomonas vaginalis [3], 29.2 µM (≈ 8.01 µg/mL). Further, the results for the log partition coefficient (logP) in series [2], in series [4] and in series [5] were 1.5, 1.5 and 1.56, respectively. Further, the EC50 in the series on Trichomonas vaginalis [3] came to 64.3 µM.

Turning to `Cc1ncc([N+](=O)[O-])n1CCO` [METRONIDAZOLE], the MIC against Trichomonas vaginalis [1] and against Trichomonas vaginalis [3] was 2.92 µM (≈ 0.5 µg/mL) in each case. The logP in series [2] amounted to 0.115; in series [4] it was 0.11; in series [5], 0.12. Besides, the EC50 in the series with Trichomonas vaginalis [3] is 1.2 µM.
